Data from US20090069300A1, “ISOQUINOLINYL AND ISOINDOLINYL DERIVATIVES AS HISTAMINE-3 ANTAGONISTS” (Wyeth, priority 2007, published 2009).
Where a name gives a salt, the structure may show the parent alone.

Each compound was assayed against T1, Human Histamine H3 Receptor (Homo sapiens, UniProt Q9Y5N1) (assay: Methyl histamine binding in human histamine H3 receptor cell line). Details: membranes of stably transfected HEK293T cells; methyl histamine radioligand 1 nM; one hour incubation at 30° C.; Ki from IC50 by Cheng-Prusoff; read-out: H3 Binding Ki.
T1 construct: expressed in transfected cells; host or cells: HEK293T (stably transfected; membranes prepared from the cells)
Method: Evaluation of Methyl Histamine Binding in Human Histamine H3 Receptor Cell Line
The affinity of test compounds for the histamine 3 (H3) receptor is evaluated in the following manner. […] Cells are scraped from the plate, transferred to centrifuge tubes, washed one time in PBS by centrifugation in a Sorvall RT7 Plus centrifuge (2000 rpm 10 minutes, 4° C.). The resulting pellets are stored at −80° C. until ready for use. Cells are re-suspended in buffer (50 mM Tris pH=7.5) and placed in a Dounce homogenizer, douncing ten times to homogenize cells. The homogenate is spun down by centrifugation (Sorvall RT7 Plus, 1800 rpm 10 minutes, 4° C.). The supernatant is placed in a Corex tube and spun down by centrifugation (Sorvall RC 5c Plus, 17,000 rpm 20 minutes, 4° C.). The pellet is resuspended in buffer (50 mM Tris, pH 7.5). Protein concentration (ug/ul) is determined using the Micro-BCA Protein Determination. The binding assay is set up in a 96 well microtiter plate in a total volume of 250 uL. Non-specific binding is determined in the presence of 10 uM clobenpropit. The final radioligand concentration is 1 nM. The test compound is serially diluted using the Beckman Biomek2000 to a final approximate range of 100 uM to 100 pM. Membranes are suspended in buffer, homogenized in 2 bursts of ten seconds using a Vitris mechanical homogenizer set at power setting 5. Ten μg of membranes are added to each well. Following a one hour incubation at 30° C., the reaction is terminated by the addition of ice cold buffer and rapid filtration with a Packard Filtermate Harvester through a GF/B filter pre-soaked with 1% PEI for one hour. The plate is dried for one hour at 37° C. and 60 μL Microscint Scintillant is added to each well. The CPM per well is measured on a Packard Top Count NXT. Ki values are determined in nM. […] CPM values are expressed as % specific binding and plotted vs compound concentration. A curve is fitted using a four-parameter logistic fit and the IC50 value is determined. The Ki is calculated from this using the Cheng-Prusoff equation: […]=IC50/1+(L/Kd) where L=concentration of free radioligand used in the assay, and Kd is the dissociation constant of the radioligand for the receptor. L is determined for each experiment by counting an aliquot of the diluted radioligand (corresponding to that added to each well) and the Kd has previously been determined under identical conditions for this cell line/radioligand.

T1 sequence (Q9Y5N1 whole entry): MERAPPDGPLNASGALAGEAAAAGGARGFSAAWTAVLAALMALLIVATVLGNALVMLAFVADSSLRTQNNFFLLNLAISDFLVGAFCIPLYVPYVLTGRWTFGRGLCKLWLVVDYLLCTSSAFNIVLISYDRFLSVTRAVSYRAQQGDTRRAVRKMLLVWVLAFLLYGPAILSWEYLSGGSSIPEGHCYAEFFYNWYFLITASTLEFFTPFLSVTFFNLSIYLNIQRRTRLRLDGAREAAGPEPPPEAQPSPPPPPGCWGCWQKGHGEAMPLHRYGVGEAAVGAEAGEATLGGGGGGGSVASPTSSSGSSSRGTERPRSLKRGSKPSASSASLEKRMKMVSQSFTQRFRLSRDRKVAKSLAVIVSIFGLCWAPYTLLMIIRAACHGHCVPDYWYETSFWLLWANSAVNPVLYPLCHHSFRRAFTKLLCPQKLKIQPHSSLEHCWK

SMILES | Ki
COC(=O)c1ccc(-c2ccc3c(c2)CCN(CCN2CCC[C@H]2C)C3=O)cc1 [Example 25, methyl 4-(2-{2-[(2R)-2-methylpyrrolidin-1-yl]ethyl}-1-oxo-1,2,3,4-tetrahydroiso-quinolin-6-yl)benzoate] | < 10 nM

Same assay, conditions: read-out: H3 Binding Ki

SMILES | Ki
O=C1c2ccc(-c3ccc(F)cc3)cc2CCN1CCN1CCCC1 [Example 9, 6-(4-fluorophenyl)-2-(2-pyrrolidin-1-ylethyl)-3,4-dihydroiso-quinolin-1(2H)-one Hydrochloride] | 10.1 to 25 nM
O=C1c2ccc(-c3cc(F)cc(F)c3)cc2CCN1CCN1CCCC1 [Example 10, 6-(3,5-difluorophenyl)-2-(2-pyrrolidin-1-ylethyl)-3,4-dihydroisoquinolin-1(2H)-one] | < 10 nM
O=C1c2ccc(-c3ccc(F)cc3F)cc2CCN1CCN1CCCC1 [Example 11, 6-(2,4-difluorophenyl)-2-(2-pyrrolidin-1-ylethyl)-3,4-dihydroisoquinolin-1(2H)-one] | < 10 nM
O=C1c2ccc(-c3ccccc3F)cc2CCN1CCN1CCCC1 [Example 12, 6-(2-fluorophenyl)-2-(2-pyrrolidin-1-ylethyl)-3,4-dihydroisoquinolin-1(2H)-one] | 10.1 to 25 nM
O=C1c2ccc(-c3cccc(OC(F)(F)F)c3)cc2CCN1CCN1CCCC1 [Example 13, 2-(2-pyrrolidin-1-ylethyl)-6-[3-(trifluoromethoxy)phenyl]-3,4-dihydroisoquinolin-1(2H)-one] | 25.1 to 50 nM
O=C1c2ccc(-c3ccc(OC(F)(F)F)cc3)cc2CCN1CCN1CCCC1 [Example 14, 2-(2-pyrrolidin-1-ylethyl)-6-[4-(trifluoromethoxy)phenyl]-3,4-dihydroisoquinolin-1(2H)-one] | 10.1 to 25 nM
N#Cc1cccc(-c2ccc3c(c2)CCN(CCN2CCCC2)C3=O)c1 [Example 15, 3-[1-oxo-2-(2-pyrrolidin-1-ylethyl)-1,2,3,4-tetrahydroisoquinolin-6-yl]benzonitrile] | < 10 nM
O=C1c2ccc(-c3ccccc3)cc2CCN1CCN1CCCC1 [Example 16, 6-phenyl-2-(2-pyrrolidin-1-ylethyl)-3,4-dihydroisoquinolin-1(2H)-one] | 10.1 to 25 nM
O=C1c2ccc(-c3ccc(F)c(F)c3)cc2CCN1CCN1CCCC1 [Example 17, 6-(3,4-difluorophenyl)-2-(2-pyrrolidin-1-ylethyl)-3,4-dihydroisoquinolin-1(2H)-one] | < 10 nM
O=C1c2ccc(-c3cccc(F)c3)cc2CCN1CCN1CCCC1 [Example 18, 6-(3-fluorophenyl)-2-(2-pyrrolidin-1-ylethyl)-3,4-dihydroisoquinolin-1(2H)-one] | 10.1 to 25 nM
N#Cc1ccc(-c2ccc3c(c2)CCN(CCN2CCCC2)C3=O)cc1 [Example 19, 4-[1-oxo-2-(2-pyrrolidin-1-ylethyl)-1,2,3,4-tetrahydroisoquinolin-6-yl]benzonitrile] | < 10 nM
O=C1c2ccc(-c3cccc(C(F)(F)F)c3)cc2CCN1CCN1CCCC1 [Example 20, 2-(2-pyrrolidin-1-ylethyl)-6-[3-(trifluoromethyl)phenyl]-3,4-dihydroisoquinolin-1(2H)-one] | < 10 nM
O=C1c2ccc(-c3ccc4c(c3)OCO4)cc2CCN1CCN1CCCC1 [Example 21, 6-(1,3-benzodioxol-5-yl)-2-(2-pyrrolidin-1-ylethyl)-3,4-dihydroisoquinolin-1(2H)-one] | 10.1 to 25 nM
O=C1c2ccc(-c3ccc(C(F)(F)F)cc3)cc2CCN1CCN1CCCC1 [Example 22, 2-(2-pyrrolidin-1-ylethyl)-6-[4-(trifluoromethyl)phenyl]-3,4-dihydroisoquinolin-1(2H)-one] | < 10 nM
COc1ccc(-c2ccc3c(c2)CCN(CCN2CCCC2)C3=O)cc1 [Example 23, 6-(4-methoxyphenyl)-2-(2-pyrrolidin-1-ylethyl)-3,4-dihydroisoquinolin-1(2H)-one] | < 10 nM
C[C@@H]1CCCN1CCN1CCc2ccc(-c3ccc(C#N)cc3)cc2C1=O [Example 26, 4-(2-{2-[(2R)-2-methylpyrrolidin-1-yl]ethyl}-1-oxo-1,2,3,4-tetrahydroisoquinolin-7-yl)benzonitrile] | < 10 nM
C[C@@H]1CCCN1CCN1CCc2c(cccc2-c2cccc(C#N)c2)C1=O [Example 27, 3-(2-{2-[(2R)-2-methylpyrrolidin-1-yl]ethyl}-1-oxo-1,2,3,4-tetrahydroisoquinolin-5-yl)benzonitrile] | 50.1 to 100 nM

SMILES | Ki
C[C@@H]1CCCN1CCN1CCc2c(cccc2-c2ccc(C#N)cc2)C1=O [Example 28, 4-(2-{2-[(2R)-2-methylpyrrolidin-1-yl]ethyl}-1-oxo-1,2,3,4-tetrahydroisoquinolin-5-yl)benzonitrile] | 10.1 to 25 nM
N#Cc1ccc(-c2ccc3c(c2)CCN(CCCN2CCCC2)C3=O)cc1 [Example 32, 4-[1-oxo-2-(3-pyrrolidin-1-ylpropyl)-1,2,3,4-tetrahydroisoquinolin-6-yl]benzonitrile] | < 10 nM
N#Cc1cccc(-c2ccc3c(c2)CCN(CCCN2CCCC2)C3=O)c1 [Example 33, 3-[1-oxo-2-(3-pyrrolidin-1-ylpropyl)-1,2,3,4-tetrahydroisoquinolin-6-yl]benzonitrile] | 25.1 to 50 nM
O=C1c2ccc(-c3ccncc3)cc2CCN1CCN1CCCC1 [Example 34, 6-pyridin-4-yl-2-(2-pyrrolidin-1-ylethyl)-3,4-dihydroisoquinolin-1(2)-one Hydrochloride] | < 10 nM
N#Cc1ccc2c(ccn2-c2ccc3c(c2)CCN(CCN2CCCC2)C3=O)c1 [Example 35, 1-[1-oxo-2-(2-pyrrolidin-1-ylethyl)-1,2,3,4-tetrahydroisoquinolin-6-yl]-1H-indole-5-carbonitrile Hydrochloride] | < 10 nM
O=C1c2ccc(-n3cccn3)cc2CCN1CCN1CCCC1 [Example 37, 6-(1H-pyrazol-1-yl)-2-(2-(pyrrolidin-1-yl)ethyl)-3,4-dihydroisoquinolin-1(2H)-one hydrochloride] | 10.1 to 25 nM
O=C(c1ccc2c(c1)CCN(CCN1CCCC1)C2=O)N1CCCC1 [Example 38, 6-(pyrrolidin-1-ylcarbonyl)-2-(2-pyrrolidin-1-ylethyl)-3,4-dihydroisoquinolin-1(2H)-one hydrochloride] | 10.1 to 25 nM
C[C@H]1CCCN1CCN1CCc2cc(-c3ccc(F)cc3)ccc2C1=O [Example 39, 6-(4-fluorophenyl)-2-{2-[(2S)-2-methylpyrrolidin-1-yl]ethyl}-3,4-dihydroiso-quinolin-1(2H)-one hydrochloride] | 10.1 to 25 nM
C[C@@H]1CCCN1CCN1CCc2cc(-c3ccc(F)cc3)ccc2C1=O [Example 40, 6-(4-fluorophenyl)-2-{2-[(2R)-2-methylpyrrolidin-1-yl]ethyl}-3,4-dihydroisoquinolin-1(2H)-one] | < 10 nM
O=C1c2ccc(-c3ccc(F)cc3)cc2CCN1CCN1CCCCC1 [Example 43, 6-(4-fluorophenyl)-2-(2-piperidin-1-ylethyl)-3,4-dihydroiso-quinolin-1(2H)-one hydrochloride] | < 10 nM
O=C1c2ccc(-c3ccc(F)cc3)cc2CCN1CCN1CCCCCC1 [Example 44, 2-(2-azepan-1-ylethyl)-6-(4-fluorophenyl)-3,4-dihydroisoquinolin-1(2H)-one hydrochloride] | < 10 nM
N#Cc1ccc(-c2ccc3c(c2)CCN(CCCN2CCCCC2)C3=O)cc1 [Example 45, 4-[1-oxo-2-(3-piperidin-1-ylpropyl)-1,2,3,4-tetrahydroisoquinolin-6-yl]benzonitrile hydrochloride] | 10.1 to 25 nM
N#Cc1ccc(Oc2ccc3c(c2)CCN(CCN2CCCC2)C3=O)nc1 [Example 47, 6-{[1-oxo-2-(2-pyrrolidin-1-ylethyl)-1,2,3,4-tetrahydroisoquinolin-6-yl]oxy}nicotinonitrile] | 10.1 to 25 nM
C[C@@H]1CCCN1CCN1CCc2cc(Oc3ccc(C#N)cn3)ccc2C1=O [Example 48, 6-[(2-{2-[(2R)-2-methylpyrrolidin-1-yl]ethyl}-1-oxo-1,2,3,4-tetrahydroisoquinolin-6-yl)oxy]nicotinonitrile] | < 10 nM
C[C@@H]1CCCN1CCN1CCc2cc(Oc3ccc(C#N)cc3)ccc2C1=O [Example 49, 4-[(2-{2-[(2R)-2-methylpyrrolidin-1-yl]ethyl}-1-oxo-1,2,3,4-tetrahydroisoquinolin-6-yl)oxy]benzonitrile] | < 10 nM
N#Cc1ccc(Oc2ccc3c(c2)CCN(CCN2CCCC2)C3=O)cc1 [Example 50, 4-{[1-oxo-2-(2-pyrrolidin-1-ylethyl)-1,2,3,4-tetrahydroisoquinolin-6-yl]oxy}benzonitrile] | < 10 nM
